# Test results from patent US8119633B2, “Substituted sulfonamide compounds” (Gruenenthal GmbH, priority 2007, dated 2012).
# Assays:
# [1] = target: T1, human bradykinin receptor 1 (B1R) (Homo sapiens, UniProt P46663); test: Functional study on the bradykinin receptor 1 (B1R), human: FLIPR Ca2+ influx assay; type: cell-based; conditions: test substance 10 μM; CHO K1 cells transfected with human B1R; Lys-Des-Arg9-bradykinin at EC80; Ca2+ influx (Fluo-4, FLIPR); read-out: B1R antagonism, human [10 μM] % inhibition
# T1 construct: expressed in transfected cells; host or cells: CHO K1 cells
# T1 sequence (P46663 1-353): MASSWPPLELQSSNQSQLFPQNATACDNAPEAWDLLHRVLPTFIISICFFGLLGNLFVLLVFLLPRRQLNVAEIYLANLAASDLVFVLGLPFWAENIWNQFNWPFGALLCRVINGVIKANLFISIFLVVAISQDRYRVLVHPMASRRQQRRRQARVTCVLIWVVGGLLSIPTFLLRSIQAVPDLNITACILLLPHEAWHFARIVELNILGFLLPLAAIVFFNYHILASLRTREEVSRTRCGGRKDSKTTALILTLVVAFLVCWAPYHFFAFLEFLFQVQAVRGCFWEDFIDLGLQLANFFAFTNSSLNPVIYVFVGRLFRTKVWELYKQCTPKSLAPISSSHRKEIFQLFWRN
# Source text: Functional Study on the Human Bradykinin Receptor 1 (B1R)
# (§1) The agonistic or antagonistic action of substances can be determined on the bradykinin receptor 1 (B1R) of the species human and rat using the following assay. According to this assay, the Ca^2+ influx through the channel is quantified with the aid of a Ca^2+-sensitive dye (Fluo-4 type, Molecular Probes Europe BV, Leiden, Netherlands) using a Fluorescent Imaging Plate Reader (FLIPR, Molecular Devices, Sunnyvale, USA).
# (§2) Chinese hamster ovary cells (CHO K1 cells) which have been stably transfected with the human B1R gene (hB1R cells) or with the B1R gene of the rat (rB1R cells) are used. For functional studies, the cells are plated out on black 96-well plates having a clear base (BD Biosciences, Heidelberg, Germany or Greiner, Frickenhausen, Germany) in a density of 20,000-35,000 cells/well. The cells are incubated overnight at 37° C. and with 5% CO2 in culture medium (hB1R cells: Nutrient Mixture Ham's F12, Gibco Invitrogen GmbH, Karlsruhe, Germany or DMEM, Sigma-Aldrich, Taufkirchen, Germany; rB1R cells: D-MEM/F12, Gibco Invitrogen GmbH, Karlsruhe, Germany), with 10 vol. % FBS (fetal bovine serum, Gibco Invitrogen GmbH, Karlsruhe, Germany or PAN Biotech GmbH, Aidenbach, Germany).
# (§3) On the following day, the cells are loaded for 60 minutes at 37° C. with 2.13 μM Fluo-4 (Molecular Probes Europe BV, Leiden, Netherlands) in HBSS buffer (Hank's buffered saline solution, Gibco Invitrogen GmbH, Karlsruhe, Germany) with 2.5 mM probenecid (Sigma-Aldrich, Taufkirchen, Germany) and 10 mM HEPES (Sigma-Aldrich, Taufkirchen, Germany). The plates are then washed twice with HBSS buffer, and HBSS buffer additionally containing 0.1% BSA (bovine serum albumin; Sigma-Aldrich, Taufkirchen, Germany), 5.6 mM glucose and 0.05% gelatin (Merck KGaA, Darmstadt, Germany) is added to the plates. After incubation for a further 20 minutes at room temperature, the plates are inserted into the FLIPR for Ca^2+ measurement. Alternatively, washing is carried out with buffer A (15 mM HEPES, 80 mM NaCl, 5 mM KCl, 1.2 mM CaCl2, 0.7 mM MgSO4, 2 g/l glucose, 2.5 mM probenecid) followed by loading with buffer A with added 2.5 μM Fluo-4 and 0.025% Pluronic F127 (Sigma-Aldrich, Taufkirchen, Germany). The cells are then washed twice with buffer A and incubated for 30 minutes at room temperature with buffer A additionally containing 0.05% BSA and 0.05% gelatin and are then inserted into the FLIPR for Ca^2+ measurement.
# (§4) The Ca^2+-dependent fluorescence is measured before and after the addition of substances (λex=488 nm, λem=540 nm). Quantification is carried out by measuring the highest fluorescence intensity (FC, fluorescence counts) over time.
# (§5) The FLIPR protocol consists of two substance additions. Test substances (10 μM) are first pipetted onto the cells and the Ca^2+ influx is compared with the control (hB1R: Lys-Des-Arg^9-bradykinin>=0.5 nM; rB1R: Des-Arg^9-bradykinin 10 μM). This gives the activation in %, based on the Ca^2+ signal after addition of Lys-Des-Arg^9-bradykinin (>=0.5 nM) or Des-Arg^9-bradykinin (10 μM).
# (§6) After 10-20 minutes' incubation, Lys-Des-Arg^9-bradykinin (hB1R) or Des-Arg^9-bradykinin (rB1R) is applied in the concentration of the EC80, and the influx of Ca^2+ is likewise determined.
# (§7) Antagonists lead to suppression of the Ca^2+ influx. The % inhibition compared with the maximum achievable inhibition is calculated.
# (§8) In order to determine the IC50 value, the substances are added in various concentrations. Duplicate or triplicate determinations (n=2 or n=3) are carried out, and these are repeated in at least one further independent experiment (N>=2).
# [2] = target: T2, bradykinin receptor 1 (B1R) of the rat (Rattus norvegicus, UniProt P97583); test: Functional study on the bradykinin receptor 1 (B1R), rat: FLIPR Ca2+ influx assay; type: cell-based; conditions: test substance 10 μM; CHO K1 cells transfected with rat B1R; Des-Arg9-bradykinin at EC80; Ca2+ influx (Fluo-4, FLIPR); read-out: B1R antagonism, rat [10 μM] % inhibition
# T2 construct: expressed in transfected cells; host or cells: CHO K1 cells
# T2 sequence (P97583 1-337): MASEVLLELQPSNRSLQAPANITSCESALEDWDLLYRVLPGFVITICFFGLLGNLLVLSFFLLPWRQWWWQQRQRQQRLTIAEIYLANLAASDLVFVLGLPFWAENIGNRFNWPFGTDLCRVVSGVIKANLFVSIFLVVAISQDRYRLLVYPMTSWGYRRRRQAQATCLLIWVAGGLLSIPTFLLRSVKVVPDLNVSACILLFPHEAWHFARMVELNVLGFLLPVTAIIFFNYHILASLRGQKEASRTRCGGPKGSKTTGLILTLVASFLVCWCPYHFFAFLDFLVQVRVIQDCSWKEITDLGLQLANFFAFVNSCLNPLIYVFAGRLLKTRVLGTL
# Source text: as §1, §2, §3, §4, §5, §6, §7, §8
SMILES,inhibition at 10 µM [1],inhibition at 10 µM [2]
"CN(C)C(c1ccc(F)cc1)C1CCC(NC(=O)CC2c3ccccc3CCN2S(=O)(=O)c2ccc(Cl)c(Cl)c2)CC1 (stereo not drawn) [Example 27, 2-(2-(3,4-dichlorophenylsulfonyl)-1,2,3,4-tetrahydroisoquinolin-1-yl)-N-(4-((dimethylamino)(4-fluorophenyl)methyl)cyclohexyl)acetamide]",103%,78%
"CN(C)C(c1cccc(F)c1)C1CCC(CNC(=O)CC2c3ccccc3CCN2S(=O)(=O)c2ccc(Cl)c(Cl)c2)CC1 (stereo not drawn) [Example 28, 2-[2-(3,4-dichloro-benzenesulfonyl)-1,2,3,4-tetrahydro-isoquinolin-1-yl]-N-{4-[dimethylamino-(3-fluoro-phenyl)-methyl]-cyclohexylmethyl}-acetamide]",26.3%,34%
"CN(C)C(c1ccccc1)C1CCC(CNC(=O)CC2c3ccccc3CCN2S(=O)(=O)c2ccc(Cl)c(Cl)c2)CC1 (stereo not drawn) [Example 29, 2-[2-(3,4-dichloro-benzenesulfonyl)-1,2,3,4-tetrahydro-isoquinolin-1-yl]-N-[4-(dimethylamino-phenyl-methyl)-cyclohexylmethyl]-acetamide]",64.5%,45%
"CN(C)C(CCc1ccccc1)C1CCC(CNC(=O)CC2c3ccccc3CCN2S(=O)(=O)c2ccc(Cl)c(Cl)c2)CC1 (stereo not drawn) [Example 30, 2-[2-(3,4-dichloro-benzenesulfonyl)-1,2,3,4-tetrahydro-isoquinolin-1-yl]-N-[4-(1-dimethylamino-3-phenyl-propyl)-cyclohexylmethyl]-acetamide]",75.7%,58%
"CN(C)C(c1ccc(F)cc1)C1CCC(CNC(=O)CC2c3ccccc3CCN2S(=O)(=O)c2ccc(Cl)c(Cl)c2)CC1 (stereo not drawn) [Example 31, 2-[2-(3,4-dichloro-benzenesulfonyl)-1,2,3,4-tetrahydro-isoquinolin-1-yl]-N-{4-[dimethylamino-(4-fluoro-phenyl)-methyl]-cyclohexylmethyl}-acetamide]",54%,48%
"CN(C)C(c1ccc(Cl)cc1)C1CCC(CNC(=O)CC2c3ccccc3CCN2S(=O)(=O)c2ccc(Cl)c(Cl)c2)CC1 (stereo not drawn) [Example 32, N-{4-[(4-chloro-phenyl)-dimethylamino-methyl]-cyclohexylmethyl}-2-[2-(3,4-dichloro-benzenesulfonyl)-1,2,3,4-tetrahydro-isoquinolin-1-yl]-acetamide]",10.7%,15%
"CN(C)C(c1ccc(Cl)cc1)C1CCC(CCNC(=O)CC2c3ccccc3CCN2S(=O)(=O)c2ccc(Cl)c(Cl)c2)CC1 (stereo not drawn) [Example 33, N-(2-{4-[(4-chloro-phenyl)-dimethylamino-methyl]-cyclohexyl}-ethyl)-2-[2-(3,4-dichloro-benzenesulfonyl)-1,2,3,4-tetrahydro-isoquinolin-1-yl]-acetamide]",42.2%,18%
"CN(C)C(c1cccc(F)c1)C1CCC(CCNC(=O)CC2c3ccccc3CCN2S(=O)(=O)c2ccc(Cl)c(Cl)c2)CC1 (stereo not drawn) [Example 34, 2-[2-(3,4-dichloro-benzenesulfonyl)-1,2,3,4-tetrahydro-isoquinolin-1-yl]-N-(2-{4-[dimethylamino-(3-fluoro-phenyl)-methyl]-cyclohexyl}-ethyl)-acetamide]",71.2%,41%
"CN(C)C(c1ccc(F)cc1)C1CCC(CCNC(=O)CC2c3ccccc3CCN2S(=O)(=O)c2ccc(Cl)c(Cl)c2)CC1 (stereo not drawn) [Example 35, 2-[2-(3,4-dichloro-benzenesulfonyl)-1,2,3,4-tetrahydro-isoquinolin-1-yl]-N-(2-{4-[dimethylamino-(4-fluoro-phenyl)-methyl]-cyclohexyl}-ethyl)-acetamide]",79.5%,49%
"CN(C)C(c1cccc(F)c1)C1CCC(NC(=O)c2ccccc2N(C)S(=O)(=O)c2ccc(Cl)c(Cl)c2)CC1 (stereo not drawn) [Example 36, 2-[(3,4-dichloro-benzenesulfonyl)-methyl-amino]-N-{4-[dimethylamino-(3-fluoro-phenyl)-methyl]-cyclohexyl}-benzamide]",64.1%,67%
"CN(C)C(c1ccc(F)cc1)C1CCC(NC(=O)c2ccccc2N(C)S(=O)(=O)c2ccc(Cl)c(Cl)c2)CC1 (stereo not drawn) [Example 37, 2-[(3,4-dichloro-benzenesulfonyl)-methyl-amino]-N-{4-[dimethylamino-(4-fluoro-phenyl)-methyl]-cyclohexyl}-benzamide]",82.2%,64%
"CN(C)C(c1ccccc1)C1CCC(CNC(=O)c2ccccc2N(C)S(=O)(=O)c2ccc(Cl)c(Cl)c2)CC1 (stereo not drawn) [Example 38, 2-[(3,4-dichloro-benzenesulfonyl)-methyl-amino]-N-[4-(dimethylamino-phenylmethyl)-cyclohexylmethyl]-benzamide]",17.9%,15%
"CN(C)C(CCc1ccccc1)C1CCC(CNC(=O)c2ccccc2N(C)S(=O)(=O)c2ccc(Cl)c(Cl)c2)CC1 (stereo not drawn) [Example 39, 2-[(3,4-dichloro-benzenesulfonyl)-methyl-amino]-N-[4-(1-dimethylamino-3-phenyl-propyl)-cyclohexylmethyl]-benzamide]",79.3%,42%
"CN(C)C(c1ccc(F)cc1)C1CCC(CNC(=O)c2ccccc2N(C)S(=O)(=O)c2ccc(Cl)c(Cl)c2)CC1 (stereo not drawn) [Example 40, 2-[(3,4-dichloro-benzenesulfonyl)-methyl-amino]-N-{4-[dimethylamino-(4-fluoro-phenyl)-methyl]-cyclohexylmethyl}-benzamide]",17.1%,20%
"CN(C)C(c1ccc(Cl)cc1)C1CCC(CNC(=O)c2ccccc2N(C)S(=O)(=O)c2ccc(Cl)c(Cl)c2)CC1 (stereo not drawn) [Example 41, N-{4-[(4-chloro-phenyl)-dimethylamino-methyl]-cyclohexylmethyl}-2-[(3,4-dichloro-benzenesulfonyl)-methyl-amino]-benzamide]",22%,25%
